Laboratory results reported in PMC6978316, “Development of chimeric peptides to facilitate the neutralisation of lipopolysaccharides during bactericidal targeting of multidrug-resistant Escherichia coli” (Communications Biology, 2020).
Where a SMILES comes first, the peptide text is derived from it. Bridges are numbered along the chain shown (N, C = ends).

Key:
[1] = tested on: S. pullorum CVCC533; test: MIC, microtiter broth dilution; format: cell-based, Salmonella pullorum; settings: 37 °C, 16–18 h, three independent experiments
Experimental: (§1) The MIC values of A6, G6, the parental peptides (N6 and LBP14), LBPN6, scramble controls (N6CK, A6CK, and G6CK), and PMB were determined by the microtiter broth dilution method. The tested strains included Gram-negative bacteria, Gram-positive bacteria, and fungi and were cultured to the logarithmic growth phase, diluted to 10^5 CFU per ml, and added into 96-well plates (90 μl per well). Peptides or antibiotic were diluted with PBS by 2-fold dilution and were added to each well (10 μl per well). Polymyxin B (PMB) and PBS were used as the positive and negative control, respectively. […] All experiments were repeated three times.

[2] = tested on: S. aureus, Enterococcus faecalis, and Streptococcus suis; format: cell-based
Experimental: as §1

[3] = tested on: TNF-α, IL-6 and IL-10 in LPS-stimulated RAW 264.7 cells; test: Cytokines in LPS-stimulated macrophages (ELISA); format: cell-based, mouse; design: unit not given here
Experimental: Macrophages RAW 264.7 were incubated with LPS (0.1 and 1 μg per ml) that was dissolved in serum-free DMEM medium, and then were treated with A6, G6, N6, or PMB (20 μM) alone in 24-well plates (2.5 × 10^5 cells per well). The cells incubated with serum-free DMEM and LPS were used as a control. After treatment for 2 h, the supernatants were collected and assessed for TNF-α, IL-6, and IL-10 by using the ELISA kits in the Jiaxuan Biotech. Co. Ltd. (Beijing, China).
73 Supplementary Figure 15. Effects of SCPs on cytokines in RAW 264.7 ells. Cells were incubated with 0.1 μg per
74 ml (a) or 1 μg per ml (b) LPS and 20 μM A6, G6, N6 or PMB for 2 h. The levels of TNF-α, IL-6 and IL-10 in
75 supernatants were measured using ELISA. The data are given as the mean ± SD (n = 3 independent experiments).
76 Different lower case letters indicate a significant difference between two groups (p < 0.05).
(1 picture or pasted object on this page, not shown here)

[4] = tested on: E. coli CVCC1515; test: MIC, microtiter broth dilution; format: cell-based, Escherichia coli; settings: 37 °C, 16–18 h, three independent experiments
Experimental: as §1

[5] = Biodistribution of FITC-labeled peptides (in vivo fluorescence imaging); settings: nude mice, FITC-labeled peptide 5 mg per kg intraperitoneally
Experimental: The nude mice were intraperitoneally injected with 5 mg per kg FITC-labeled A6, G6, and N6, respectively. Free FITC was used as a negative control.

[6] = tested on: pepsin; format: in vitro ADME
[7] = tested on: Enterococcus faecalis CVCC3936; test: MIC, microtiter broth dilution; format: cell-based; settings: 37 °C, 16–18 h, three independent experiments
Experimental: as §1

[8] = tested on: Staphylococcus aureus ATCC43300; test: MIC, microtiter broth dilution; format: cell-based; settings: 37 °C, 16–18 h, three independent experiments
Experimental: as §1

[9] = tested on: Streptococcus suis CVCC606; test: MIC, microtiter broth dilution; format: cell-based; settings: 37 °C, 16–18 h, three independent experiments
Experimental: as §1

[10] = tested on: Pseudomonas aeruginosa CICC10419; test: MIC, microtiter broth dilution; format: cell-based; settings: 37 °C, 16–18 h, three independent experiments
Experimental: as §1

[11] = in vitro; settings: for peptide remained intact in serum / remaining at 1 h / remaining at 2 h / remaining at 4 h: mice serum, 37 °C, RP-HPLC; for half-life / remaining at 1 h / remaining at 2 h / remaining at 4 h: mouse, serum
Experimental: The thermal, pH and enzyme stability of A6 and G6 were evaluated against MDR E. coli CVCC195 using a previous method with minor revisions. The N6, A6, and G6 solutions were treated at different temperatures (20–100 °C) for 1 h, dissolved and incubated at different pH values (2–10) for 3 h, or incubated with trypsin or pepsin for 4 h. The inhibition zone diameters were measured after incubation at 37 °C for 18–24 h. The peptides were dissolved in H2O or mice serum at 37 °C to detect their serum stability and samples were removed at different time points to determine their residual activity by the inhibition zone or reverse-phase high-performance liquid chromatography (RP-HPLC) methods[62],[63].

[12] = tested on: ERK1/2 phosphorylation; test: Western blotting of lung tissues, p-ERK1/2/ERK1/2; format: in vivo, mice; settings: for densitometric analysis of p-ERK1/2/ERK1/2 ratio: LPS + substance, Mean; for attenuation of ERK1/2 phosphorylation: lung tissue 8 h, LPS 13.5 mg per kg, western blotting, densitometry
Experimental: Additionally, the mice were sacrificed at 8 h and the lung tissues were homogenized and suspended in […] HEPES buffer for 20 min according to standard procedures. After centrifugation at 4 °C for 20 min (12,000 rpm), the protein levels of supernatants were quantified using a Bradford protein assay kit. A total of 30 μg proteins were analyzed on an 8–12% sodium dodecyl sulfate-polyacrylamide gel electrophoresis (SDS-PAGE) gel and were immunoblotted onto PVDF membranes, followed by an incubation with the primary antibodies of p65, p-p65, extracellular signal-regulated kinase (ERK)1/2, p-ERK1/2, and IκBα overnight at 4 °C. After washing, the blots were incubated with the peroxidase conjugated goat-rabbit or goat-mouse antibodies. Relative protein expression levels were quantified by a densitometric measurement of chemiluminescence (ECL) reaction band. β-actin was used as the internal reference.

[13] = tested on: trypsin; format: in vitro ADME
[14] = tested on: MDR E. coli CVCC195; test: Sepsis mouse model, survival after lethal E. coli challenge; format: in vivo, ICR mice; settings: mice, E. coli 5 × 10^8 CFU i.p.; 0.25 μmol per kg; 7 d; n = 5
Experimental: The mouse survival was recorded for 7 d. The mice injected with LPS or saline were used as negative or blank controls, respectively.

[15] = RAW 264.7 cells incubated with 0.1 μg per ml LPS
[16] = RAW 264.7 cells incubated with 1 μg per ml LPS
[17] = peptide remaining in serum, Mean, 1 h, mean of n = 3 (source data Fig. 2f)
[18] = peptide remaining in serum, Mean, 2 h, mean of n = 3 (source data Fig. 2f)
[19] = peptide remaining in serum, Mean, mean of n = 3 (source data Fig. 2f)

Row | Compound | MICs against S. aureus, Enterococcus faecalis, and Streptococcus suis [2] | IL-6 Mean [3, 15] | IL-10 Mean [3, 15] | TNFα Mean [3, 15] | IL-6 Mean [3, 16] | IL-10 Mean [3, 16] | TNFα Mean [3, 16] | time after injection at which the fluorescence disappeared / peptide was excreted [5] | antibacterial activity after pepsin (inhibition zone diameter), Mean [6] | antibacterial activity without enzyme (inhibition zone diameter), Mean [6] | half-life [11] | remaining at 1 h [11, 17] | remaining at 2 h [11, 18] | remaining at 4 h [11, 19] | densitometric analysis of p-ERK1/2/ERK1/2 ratio [12] | attenuation of ERK1/2 phosphorylation [12] | antibacterial activity after trypsin (inhibition zone diameter), Mean [13] | further results
1 | CC(C)[C@@H]1NC(=O)CNC(=O)[C@H](CC(N)=O)NC(=O)[C@H](CCCNC(=N)N)NC(=O)[C@H](Cc2ccc(O)cc2)NC(=O)[C@H](C(C)C)NC(=O)[C@@H](NC(=O)[C@@H](NC(=O)[C@H](CC(N)=O)NC(=O)[C@H](Cc2c[nH]c3ccccc23)NC(=O)[C@H](C)NC(=O)[C@H](Cc2ccccc2)NC(=O)CNC(=O)[C@H](CO)NC(=O)CNC(=O)CNC(=O)CNC(=O)CNC(=O)[C@H](CCCCN)NC(=O)[C@H](Cc2ccccc2)NC(=O)[C@H](Cc2ccccc2)NC(=O)[C@H](CO)NC(=O)[C@H](C)NC(=O)[C@H](CCCNC(=N)N)NC(=O)[C@@H](NC(=O)[C@H](CCCCN)NC(=O)[C@H](Cc2c[nH]c3ccccc23)NC(=O)[C@H](CCCNC(=N)N)NC(=O)CNC(=O)[C@H](CCC(N)=O)NC(=O)[C@@H](NC(=O)[C@@H](N)CCCNC(=N)N)C(C)C)C(C)C)C(C)C)CSSC[C@@H](C(=O)N[C@@H](Cc2c[nH]cn2)C(=O)N[C@@H](CCCNC(=N)N)C(=O)N[C@@H](CCCNC(=N)N)C(=O)N[C@@H](C)C(=O)N[C@@H](CC(N)=O)C(=O)O)NC(=O)[C@H](C(C)C)NC(=O)[C@H](CCCNC(=N)N)NC1=O [G6] (H-RVQGRWKVRASFFKGGGGSGFAWNVCVYRNGVRVCHRRAN-OH; disulfide 26-35) | greater than 3.52 μM | 280.633 | 106.633 | 481.5 | 352.733 | 142.667 | 599.567 | 48 h | 1.607 | 1.439 | < 2 h | 68.6% | 29.6% | 11.2% | 0.1248 | 88.2% | 0 | MIC [1]: 16 μg per ml; MIC [4]: 16 μg per ml; MIC [7]: 16 μg per ml; MIC [8]: 16 μg per ml; MIC [9]: 16 μg per ml; MIC [10]: 16 μg per ml; peptide remained intact in serum ([11]; 1 h): 68.5%; peptide remained intact in serum ([11]; 2 h): 29.5%
2 | polymyxin B [PMB] |  | 311.767 | 122.2 | 546.867 | 278.7 | 116.9 | 447.633 |  |  |  |  |  |  |  | 1.579 | moderately promoted the ERK1/2 phosphorylation |  | survival rate [14]: 100%
3 | H-RVQGRWKVRASFFKEAAAKEAAAKGFAWNVCVYRNGVRVCHRRAN-OH (disulfide 31-40) [A6] | greater than 3.52 μM | 246.9 | 89.8 | 410.667 | 216.667 | 77.3667 | 355.9 | 48 h | 1.623 | 1.456 | < 2 h | 27% | 7.18% | 4.77% | 1.795 | moderately promoted the ERK1/2 phosphorylation | 0 | remaining at 2 h ([11]; peptide remained intact in serum, 2 h): 7%
4 | CC(C)[C@@H]1NC(=O)CNC(=O)[C@H](CC(N)=O)NC(=O)[C@H](CCCNC(=N)N)NC(=O)[C@H](Cc2ccc(O)cc2)NC(=O)[C@H](C(C)C)NC(=O)[C@@H](NC(=O)[C@@H](NC(=O)[C@H](CC(N)=O)NC(=O)[C@H](Cc2c[nH]c3ccccc23)NC(=O)[C@H](C)NC(=O)[C@H](Cc2ccccc2)NC(=O)CN)C(C)C)CSSC[C@@H](C(=O)N[C@@H](Cc2c[nH]cn2)C(=O)N[C@@H](CCCNC(=N)N)C(=O)N[C@@H](CCCNC(=N)N)C(=O)N[C@@H](C)C(=O)N[C@@H](CC(N)=O)C(=O)O)NC(=O)[C@H](C(C)C)NC(=O)[C@H](CCCNC(=N)N)NC1=O [N6] (H-GFAWNVCVYRNGVRVCHRRAN-OH; disulfide 7-16; N-terminus and C-terminus assumed) |  | 279.833 | 106.233 | 479.8 | 303.4 | 118.033 | 495.967 |  |  |  |  |  |  |  | 0.9271 | 16.1% |  | 
